In patent US6951950B2, “Quaternary ammonium compounds” (Pharmacia & Upjohn Co, priority 2002, dated 2005):

Tested on: Balb/c mice
Test: Bronchodilatory effect of inhaled quaternary ammonium salts; methacholine-induced bronchoconstriction (Penh, whole body plethysmography)
Format: in vivo
Settings: for inhibition of the bronchoconstriction to methacholine: female BALB/c mice, 5 min inhalation of 1.29 mg/ml aerosol, 80 mg/ml methacholine
Experimental: Female BALB/c mice, weight range 19-22 g, were obtained from Charles River Laboratories (Kingston, N.C.). They received food and water ad libitum. All procedures in these studies were in compliance with the Animal Welfare Act Regulation, 9CFP. Parts 1 and 2, Publication (NIH) 85-23, 1985.
Compounds for aerosol administration were prepared in sterile Dulbecco's Phosphate Buffered Saline. Mice were placed in a carousel-style, nose only, exposure chamber and allowed to inhale aerosols for five minutes, using an ICN SPAG-2 nebulizer. This nebulizer generates a mean aerosol particle size of 1.3 microns at a rate of approximately 0.25 ml/minute.
Ten minutes and 36 hours later, the mice were moved to whole body plethysmograph chambers. Bronchoconstriction was induced in mice by administration of an 80 mg/ml methacholine (MC) aerosol into the plethysmograph chambers for 5 minutes. The mice were allowed to inhale an aerosol containing 80 mg/ml methacholine following inhalation treatment with DPBS vehicle (Dulbecco's Phosphate Buffered Saline), or 80 mg/ml methacholine following inhalation treatment with 1.29 mg/ml of (3S)-3-(2-amino-2-oxo-1,1-diphenylethyl)-1-[2-(2,3-dihydro-1-benzofuran-5-yl)ethyl]-1-methylpyrrolidinium iodide. The average enhanced pause (Penh, lung resistance), corresponding to airflow resistance, was determined and statistically analyzed using Kruskal-Wallis one way ANOVA. In order to determine the baseline, saline aerosol (without methacholine) was also separately administered to the mice.

## C[N+]1(CCc2ccc3c(c2)CCO3)CC[C@@H](C(C(N)=O)(c2ccccc2)c2ccccc2)C1.[I-] (stereo partly drawn) [Example I, (3S)-3-(2-amino-2-oxo-1,1-diphenylethyl)-1-[2-(2,3-dihydro-1-benzofuran-5-yl)ethyl]-1-methylpyrrolidinium iodide]
Measured 10 minutes after dosing (FIG. 1)
  inhibition of the bronchoconstriction to methacholine: 100%
Measured 36 hours after dosing (FIG. 2)
  inhibition of the bronchoconstriction to methacholine: 61%
Varying concentrations, quaternary compound vs its tertiary amine form (FIGS. 3A-3C)
  efficacy (lung resistance) compared to tertiary amine form: extended activity
